From ChEMBL document CHEMBL1201862, “PubChem BioAssay data set” (2004)
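Each compound was tested at five concentrations against cells in 96-well plates for 48 hours. GI50 = concentration required for 50% inhibition of growth.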 Active and inactive are the calls of the source. Cut-off read from the data, not from the text of the source: active = GI50 up to about 1.1 µM and inactive = higher.

Legend:
Experiment in all cases: DTP human tumour cell line panel, 48 h
[1] = test system: OVCAR-8
[2] = test system: MDA-MB-435
[3] = test system: SK-MEL-2
[4] = test system: IGROV-1
[5] = test system: MOLT-4
[6] = test system: SN12C
[7] = test system: NCI-H226
[8] = test system: A498
[9] = test system: A549
[10] = test system: K562
[11] = test system: 786-0
[12] = test system: KM12
[13] = test system: BT-549
[14] = test system: DU-145
[15] = test system: NCI-H23
[16] = test system: MDA-N
[17] = test system: RPMI-8226
[18] = test system: SR
[19] = test system: UO-31

Row | Structure (SMILES) | GI50 [1] | GI50 [2] | GI50 [3] | GI50 [4] | GI50 [5] | GI50 [6] | GI50 [7] | GI50 [8] | GI50 [9] | GI50 [10] | GI50 [11] | GI50 [12] | GI50 [13] | GI50 [14] | GI50 [15] | GI50 [16] | GI50 [17] | GI50 [18] | GI50 [19]
1 | CC[C@H](C)c1occ2c(O)c(C(=O)O)c(=O)cc-2c1C | 19.2 µM (inactive) | 22.1 µM (inactive) | 17.3 µM (inactive) | 18.6 µM (inactive) | 19.8 µM (inactive) | 22.5 µM (inactive) | 33.8 µM (inactive) | 29 µM (inactive) | 30 µM (inactive) | 29.1 µM (inactive) | 40.1 µM (inactive) | 18.5 µM (inactive) | 25.9 µM (inactive) | 34.9 µM (inactive) | 21.4 µM (inactive) | 24 µM (inactive) | 30.7 µM (inactive) | 21.9 µM (inactive) | –
2 | Cn1ccnc1Sc1ccc(/C=N/c2ccc3nc(SCC(=O)NC4CCCCC4)sc3c2)cc1[N+](=O)[O-] | > 100 µM (inactive) | > 100 µM (inactive) | 18.6 µM (inactive) | 37.1 µM (inactive) | > 100 µM (inactive) | > 100 µM (inactive) | > 100 µM (inactive) | 14.6 µM (inactive) | > 100 µM (inactive) | > 100 µM (inactive) | 11.6 µM (inactive) | > 100 µM (inactive) | 14.1 µM (inactive) | > 100 µM (inactive) | 37.5 µM (inactive) | > 100 µM (inactive) | > 100 µM (inactive) | > 100 µM (inactive) | > 100 µM (inactive)
3 | C[C@]12CC[C@H]3[C@@H](CC=C4C[C@@H](N5CCCC5)CC[C@@]43C)[C@@H]1C[C@H](N1CCCCC1)[C@@H]2O | > 100 µM (inactive) | 45.4 µM (inactive) | – | > 100 µM (inactive) | > 100 µM (inactive) | > 100 µM (inactive) | > 100 µM (inactive) | > 100 µM (inactive) | > 100 µM (inactive) | 16.9 µM (inactive) | 91.8 µM (inactive) | > 100 µM (inactive) | > 100 µM (inactive) | > 100 µM (inactive) | > 100 µM (inactive) | 61.1 µM (inactive) | 26.8 µM (inactive) | 11.4 µM (inactive) | > 100 µM (inactive)
4 | Cc1csc(CP(=O)(OC(C)C)OC(C)C)n1 | > 100 µM (inactive) | > 100 µM (inactive) | > 100 µM (inactive) | > 100 µM (inactive) | > 100 µM (inactive) | > 100 µM (inactive) | > 100 µM (inactive) | > 100 µM (inactive) | > 100 µM (inactive) | > 100 µM (inactive) | > 100 µM (inactive) | – | > 100 µM (inactive) | > 100 µM (inactive) | > 100 µM (inactive) | > 100 µM (inactive) | > 100 µM (inactive) | > 100 µM (inactive) | 74 µM (inactive)
5 | Cc1ccc(C2=CC(=O)OC(C[P+](c3ccccc3)(c3ccccc3)c3ccccc3)(c3ccccc3)O2)cc1 (stereo not drawn) | 24.5 µM (inactive) | 16.2 µM (inactive) | 15.2 µM (inactive) | 13.7 µM (inactive) | 21.3 µM (inactive) | 27.2 µM (inactive) | 27.1 µM (inactive) | 15.1 µM (inactive) | 15.8 µM (inactive) | 23.3 µM (inactive) | 19.3 µM (inactive) | 17.7 µM (inactive) | 26.7 µM (inactive) | 16.5 µM (inactive) | 13.6 µM (inactive) | 14.7 µM (inactive) | 17.5 µM (inactive) | 15.6 µM (inactive) | 16.3 µM (inactive)
6 | CC(=O)[C@@H](C)C(=O)N1C(=O)OC[C@@]12[C@@H]1CC[C@@H](C1)C2(C)C | > 100 µM (inactive) | > 100 µM (inactive) | > 100 µM (inactive) | > 100 µM (inactive) | – | > 100 µM (inactive) | > 100 µM (inactive) | > 100 µM (inactive) | > 100 µM (inactive) | > 100 µM (inactive) | > 100 µM (inactive) | > 100 µM (inactive) | > 100 µM (inactive) | > 100 µM (inactive) | > 100 µM (inactive) | > 100 µM (inactive) | > 100 µM (inactive) | 78.7 µM (inactive) | > 100 µM (inactive)
7 | Oc1ccc[nH]c1=[Se] | 37.2 µM (inactive) | 41.8 µM (inactive) | > 100 µM (inactive) | 66.7 µM (inactive) | > 100 µM (inactive) | 48.2 µM (inactive) | > 100 µM (inactive) | – | 32.9 µM (inactive) | 36.2 µM (inactive) | 16 µM (inactive) | 45.5 µM (inactive) | 55.1 µM (inactive) | 62.2 µM (inactive) | 46.2 µM (inactive) | 57 µM (inactive) | 40.6 µM (inactive) | 36.3 µM (inactive) | 83.2 µM (inactive)
8 | COC(=O)C1(C(=O)OC)N=C(C)OC1C(C)C (stereo not drawn) | > 100 µM (inactive) | > 100 µM (inactive) | > 100 µM (inactive) | – | > 100 µM (inactive) | > 100 µM (inactive) | > 100 µM (inactive) | > 100 µM (inactive) | > 100 µM (inactive) | > 100 µM (inactive) | > 100 µM (inactive) | > 100 µM (inactive) | > 100 µM (inactive) | > 100 µM (inactive) | > 100 µM (inactive) | > 100 µM (inactive) | > 100 µM (inactive) | > 100 µM (inactive) | > 100 µM (inactive)
9 | Cc1ccccc1S(=O)(=O)Nn1cnc2ccc(S(=O)(=O)Nc3ccc(Cl)cc3)cc2c1=O | > 100 µM (inactive) | 82.8 µM (inactive) | 16.6 µM (inactive) | 7.59 µM (inactive) | > 100 µM (inactive) | > 100 µM (inactive) | > 100 µM (inactive) | – | > 100 µM (inactive) | 10 µM (inactive) | > 100 µM (inactive) | 12.4 µM (inactive) | > 100 µM (inactive) | > 100 µM (inactive) | 60.4 µM (inactive) | 53.1 µM (inactive) | 51.8 µM (inactive) | > 100 µM (inactive) | 18.1 µM (inactive)
10 | CCCCNC(=O)OCCN=c1c2ccccc2ccc2ccccc12 | > 100 µM (inactive) | > 100 µM (inactive) | > 100 µM (inactive) | > 100 µM (inactive) | > 100 µM (inactive) | > 100 µM (inactive) | > 100 µM (inactive) | – | > 100 µM (inactive) | > 100 µM (inactive) | > 100 µM (inactive) | > 100 µM (inactive) | > 100 µM (inactive) | > 100 µM (inactive) | > 100 µM (inactive) | > 100 µM (inactive) | > 100 µM (inactive) | > 100 µM (inactive) | > 100 µM (inactive)
11 | C=CCNC1=C2C[C@@H](C)C[C@@H](OC)[C@H](OC(=O)CN)[C@H](C)/C=C(\C)[C@@H](OC(N)=O)[C@H](OC)/C=C\C=C(/C)C(=O)NC(=CC1=O)C2=O | 0.904 µM (active) | 0.418 µM (active) | 0.453 µM (active) | 0.927 µM (active) | 1.21 µM (inactive) | 0.497 µM (active) | – | 0.74 µM (active) | 0.359 µM (active) | 0.337 µM (active) | 1.49 µM (inactive) | 0.27 µM (active) | 10.3 µM (inactive) | 0.783 µM (active) | 0.48 µM (active) | 0.223 µM (active) | 3.59 µM (inactive) | 0.134 µM (active) | 5.87 µM (inactive)
12 | CC(=O)OC(C)(C)CCC(=O)[C@](C)(O)[C@H]1[C@H](O)C[C@@]2(C)[C@@H]3CCc4c(cc(OC5OC(CO)C(O)C(O)C5O)c(O)c4C)C3(C)C(=O)C[C@]12C (stereo partly drawn) | > 100 µM (inactive) | > 100 µM (inactive) | > 100 µM (inactive) | > 100 µM (inactive) | > 100 µM (inactive) | > 100 µM (inactive) | > 100 µM (inactive) | > 100 µM (inactive) | > 100 µM (inactive) | > 100 µM (inactive) | > 100 µM (inactive) | > 100 µM (inactive) | > 100 µM (inactive) | > 100 µM (inactive) | > 100 µM (inactive) | > 100 µM (inactive) | – | > 100 µM (inactive) | > 100 µM (inactive)
13 | C=CC[C@]12C=C(OC)[C@@H](O)[C@](OC)(C(c3cc(OC)c4c(c3)OCO4)[C@H]1C)[C@H]2OC(C)=O (stereo partly drawn) | > 100 µM (inactive) | 94.6 µM (inactive) | > 100 µM (inactive) | > 100 µM (inactive) | 67.5 µM (inactive) | > 100 µM (inactive) | > 100 µM (inactive) | > 100 µM (inactive) | > 100 µM (inactive) | > 100 µM (inactive) | > 100 µM (inactive) | > 100 µM (inactive) | > 100 µM (inactive) | > 100 µM (inactive) | > 100 µM (inactive) | > 100 µM (inactive) | > 100 µM (inactive) | > 100 µM (inactive) | 89.3 µM (inactive)
14 | Cc1cc(=O)oc2c(CN3CCCCC3)c(O)ccc12 | > 100 µM (inactive) | > 100 µM (inactive) | > 100 µM (inactive) | > 100 µM (inactive) | > 100 µM (inactive) | > 100 µM (inactive) | > 100 µM (inactive) | > 100 µM (inactive) | > 100 µM (inactive) | > 100 µM (inactive) | > 100 µM (inactive) | – | > 100 µM (inactive) | > 100 µM (inactive) | > 100 µM (inactive) | > 100 µM (inactive) | > 100 µM (inactive) | > 100 µM (inactive) | –
15 | COc1cc2c(cc1C[N+](C)(C)CSc1ccccc1)-c1ccccc1CC2 | 3.9 µM (inactive) | 3.18 µM (inactive) | 2 µM (inactive) | 2.47 µM (inactive) | 2.33 µM (inactive) | 6.21 µM (inactive) | 9.02 µM (inactive) | 18.5 µM (inactive) | 19 µM (inactive) | 2.18 µM (inactive) | 6.07 µM (inactive) | 2.2 µM (inactive) | 3.89 µM (inactive) | 8.61 µM (inactive) | 3.76 µM (inactive) | 1.77 µM (inactive) | 1.57 µM (inactive) | 2.01 µM (inactive) | 15.2 µM (inactive)
